Measured values published in patent publication US20040102522A1, “Dosage form of sodium ibuprofen” (priority 2002, published 2004).

Assay: Water uptake (hygroscopicity) of sodium ibuprofen forms
Type: physicochemical

SMILES | additional water uptake on open storage (open storage over 6 months at 40° C. and 75% RH, water content 13-14% by weight) | water taken up (relative humidity 25% RH, spontaneous)
CC(C)Cc1ccc(C(C)C(=O)O)cc1.O.[Na] (centres unmarked) [sodium ibuprofen hydrate] | did not take up additional water | –
CC(C)Cc1ccc(C(C)C(=O)O)cc1.[Na] (centres unmarked) [water free sodium ibuprofen, sodium ibuprofen] | – | up to 13.6 % by weight
